Source: ChEMBL document CHEMBL6177955, “Design, synthesis and biological evaluation of Golgi-targeting anion transporters as inducers of Golgiphagy and apoptosis in cancer cells” (Eur J Med Chem, 2025)
Active and inactive are the calls of the source. No cut-off for these calls is given here.

Experiments:
[1] = test system: HepG2; experiment: Induction of apoptosis in human HepG2 cells assessed as reduction in Golgi-associated apoptotic proteins (GAAPs) expression measured after 24 hrs by Western blot analysis; assay type: functional, cell-based
[2] = test system: HepG2; experiment: Antitumor activity against human HepG2 cells xenografted mouse model assessed as reduction GRASP55 expression in tumor tissue at 5 to 10 mg/kg, ip administered once every 2 days for 21 days; assay type: functional, organism-based; settings: dose 5-10 mg/kg, time 21.0 day
[3] = Toxicity in mouse xenografted with human HepG2 cells assessed as histopathological changes in lung at 5 to 10 mg/kg, ip administered once every 2 days for 21 days by H and E staining based analysis; assay type: organism-based; settings: in vivo, 504 h, dose 5-10 mg/kg, time 21 day
[4] = Toxicity in mouse xenografted with human HepG2 cells assessed as histopathological changes in kidney at 5 to 10 mg/kg, ip administered once every 2 days for 21 days by H and E staining based analysis; assay type: organism-based; settings: in vivo, 504 h, dose 5-10 mg/kg, time 21 day
[5] = test system: HepG2; experiment: Effect on dysregulation mediated autophagy in human HepG2 cells assessed as increase in LC3B marker expression at 5 to 20 uM measured after 48 hrs incubation by Western blot analysis; assay type: functional, cell-based; settings: dose 5-20 µM
[6] = Toxicity in mouse xenografted with human HepG2 cells assessed as body weight change at 5 to 10 mg/kg, ip administered once every 2 days for 21 days; assay type: organism-based; settings: in vivo, 504 h, dose 5-10 mg/kg, time 21 day
[7] = test system: HepG2; experiment: Induction of autophagosome formation in human HepG2 cells assessed as green fluorescence in Golgi apparatus by measuring pearson co-localization at 10 uM measured after 12 hrs incubation by mCherry-LC3B assay; assay type: functional
[8] = test system: Lipid bilayer; experiment: Vesicular anionophoric activity in large unilamellar vesicle membrane derived from egg-yolk L-alpha-phosphatidylcholine assessed as induction of relative efflux of chloride ions in presence of lithium (Li+) measured up to 300 seconds by using chloride-selective electrode; settings: time <= 300.0 sec
[9] = test system: Lipid bilayer; experiment: Vesicular anionophoric activity in large unilamellar vesicle membrane derived from egg-yolk L-alpha-phosphatidylcholine assessed as induction of relative efflux of chloride ions measured up to 300 seconds by using chloride-selective electrode
[10] = test system: HepG2; experiment: Induction of apoptosis in human HepG2 cells assessed as late apoptotic cells at 10 uM measured after 24 hrs incubation by Propidium iodide/Annexin V-FITC analysis (reference value: 5.71%); assay type: functional
[11] = test system: HepG2; experiment: Induction of chloride ion influx in human HepG2 cells assessed as increase in intracellular chloride anions at 5 to 20 uM measured after 12 hrs incubation by chloride-sensitive dye MQAE-based CLSM imaging analysis; assay type: functional, cell-based; settings: dose 5-20 µM
[12] = test system: HepG2; experiment: Antitumor activity against human HepG2 cells xenografted mouse model assessed as reduction GM130 expression in tumor tissue at 5 to 10 mg/kg, ip administered once every 2 days for 21 days; assay type: functional, organism-based; settings: dose 5-10 mg/kg, time 21.0 day
[13] = Toxicity in mouse xenografted with human HepG2 cells assessed as histopathological changes in heart at 5 to 10 mg/kg, ip administered once every 2 days for 21 days by H and E staining based analysis; assay type: organism-based; settings: in vivo, 504 h, dose 5-10 mg/kg, time 21 day
[14] = test system: HepG2; experiment: Effect on dysregulation mediated autophagy in human HepG2 cells assessed as increase in p62 marker expression at 5 to 20 uM measured after 48 hrs incubation by Western blot analysis; assay type: functional, cell-based; settings: dose 5-20 µM
[15] = test system: HepG2; experiment: Antitumor activity against human HepG2 cells xenografted mouse model assessed as reduction in tumor weight at 5 to 10 mg/kg, ip administered once every 2 days for 21 days; assay type: functional, organism-based; settings: dose 5-10 mg/kg, time 21.0 day
[16] = test system: HepG2; experiment: Cell cycle arrest in human HepG2 cells assessed as accumulation of cells at G2/M phase at 10 uM measured after 24 hrs incubation by flow cytometric analysis; assay type: functional
[17] = test system: HepG2; experiment: Cell cycle arrest in human HepG2 cells assessed as accumulation of cells at G2/M phase at 5 uM measured after 24 hrs incubation by flow cytometric analysis; assay type: functional
[18] = test system: HepG2; experiment: Induction of apoptosis in human HepG2 cells assessed as necrotic cells at 5 uM measured after 24 hrs incubation by Propidium iodide/Annexin V-FITC analysis (reference value: 1.14%); assay type: functional
[19] = test system: HT-29; experiment: Antiproliferative activity against human HT-29 cells by MTT assay; assay type: functional, cell-based
[20] = test system: HepG2; experiment: Suppression of Golgi structural and functional protein expression in human HepG2 cells assessed as decrease in GM130 protein expression at 5 to 20 uM measured after 48 hrs incubation by Western blot analysis; assay type: cell-based; settings: dose 5-20 µM
[21] = test system: HepG2; experiment: Induction of apoptosis in human HepG2 cells assessed as early apoptotic cells at 20 uM measured after 24 hrs incubation by Propidium iodide/Annexin V-FITC analysis (reference value: 2.90%); assay type: functional
[22] = test system: HepG2; experiment: Induction of apoptosis in human HepG2 cells assessed as early apoptotic cells at 10 uM measured after 24 hrs incubation by Propidium iodide/Annexin V-FITC analysis (reference value: 2.90%); assay type: functional
[23] = test system: A2780; experiment: Antiproliferative activity against human A2780 cells by MTT assay; assay type: functional, cell-based
[24] = test system: HepG2; experiment: Induction of autophagosome formation in human HepG2 cells assessed as green fluorescence in lysosomes by measuring pearson co-localization at 10 uM measured after 12 hrs incubation by mCherry-LC3B assay; assay type: functional
[25] = test system: HepG2; experiment: Antitumor activity against human HepG2 cells xenografted mouse model assessed as reduction in tumor growth inhibition at 5 mg/kg, ip administered once every 2 days for 21 days relative to control; assay type: functional; settings: HepG2, 504 h, time 21 day, read-out: TGI
[26] = Toxicity in mouse xenografted with human HepG2 cells assessed as lactate dehydrogenase (LDH) at 5 to 10 mg/kg, ip administered once every 2 days for 21 days; assay type: organism-based; settings: in vivo, 504 h, dose 5-10 mg/kg, time 21 day
[27] = Toxicity in mouse xenografted with human HepG2 cells assessed as aspartate aminotransferase (AST) at 5 to 10 mg/kg, ip administered once every 2 days for 21 days; assay type: organism-based; settings: in vivo, 504 h, dose 5-10 mg/kg, time 21 day
[28] = test system: HepG2; experiment: Antitumor activity against human HepG2 cells xenografted mouse model assessed as reduction Golgi-associated apoptotic proteins (GAAPs) expression in tumor tissue at 5 to 10 mg/kg, ip administered once every 2 days for 21 days; assay type: functional, organism-based; settings: dose 5-10 mg/kg, time 21.0 day
[29] = test system: HepG2; experiment: Induction of Golgi apparatus disruption in human HepG2 cells at 5 to 10 uM measured after 24 hrs by TEM imaging analysis; assay type: functional, cell-based; settings: dose 5-10 µM
[30] = test system: Lipid bilayer; experiment: Vesicular anionophoric activity in large unilamellar vesicle membrane derived from egg-yolk L-alpha-phosphatidylcholine assessed as induction of relative efflux of chloride ions in presence of cesium (Cs+) measured up to 300 seconds by using chloride-selective electrode; settings: time <= 300.0 sec
[31] = test system: Lipid bilayer; experiment: Vesicular anionophoric activity in Bulky nitrobenzene membrane assessed as induction of relative efflux of chloride ions measured up to 100 hrs by using chloride-selective electrode
[32] = test system: HepG2; experiment: Induction of apoptosis in human HepG2 cells assessed as viable cells at 5 uM measured after 24 hrs incubation by Propidium iodide/Annexin V-FITC analysis (reference value: 90.2%); assay type: functional; settings: read-out: Activity
[33] = test system: HepG2; experiment: Induction of autophagosome formation in human HepG2 cells assessed as green fluorescence in endoplasmic reticulum (ER) by measuring pearson co-localization at 10 uM measured after 12 hrs incubation by mCherry-LC3B assay; assay type: functional
[34] = test system: HepG2; experiment: Cytotoxicity against human HepG2 cells assessed as cell viability at 1 to 20 uM measured after 24 hrs incubation in presence of chloride anions; assay type: functional, cell-based; settings: dose 1-20 µM
[35] = test system: MCF7; experiment: Antiproliferative activity against human MCF7 cells by MTT assay; assay type: functional, cell-based

Activity [8]: Active
EC50 [9]: 1.53 mol%
IC50 [19]: > 50 µM
IC50 [23]: > 50 µM
Activity [30]: Active
IC50 [35]: 12.7 µM
Structure (SMILES): NS(=O)(=O)c1ccc(NC(=O)CCCCCNc2c(Nc3cc(C(F)(F)F)cc(C(F)(F)F)c3)c(=O)c2=O)cc1
Activity [1]: Dose-dependent-effect
Activity [2]: Active
Activity [3]: Non-toxic
Activity [4]: Non-toxic
Activity [5]: Active
Activity [6]: Non-toxic
Activity [7]: 0.83
Activity [10]: 24.6%
Activity [11]: Active
Activity [12]: Active
Activity [13]: Non-toxic
Activity [14]: Active
Activity [15]: Active
Activity [16]: 17.16%
Activity [17]: 6.95%
Activity [18]: 1.64%
Activity [20]: Active
Activity [21]: 34.2%
Activity [22]: 20.2%
Activity [24]: 0.58
inhibition in vivo at 5 mg/kg [25]: 62%
Activity [26]: Non-toxic
Activity [27]: Non-toxic
Activity [28]: Active
Activity [29]: Active
Activity [31]: Active; Compound Exhibit Anion Transport Activity Most Probably Through Carrier Mechanism
viability at 5 µM [32]: 73.5%
Activity [33]: 0.13
Activity [34]: Active; Cytotoxicity Enhanced In Presence Of Chloride Anions
